In patent publication US12060336B1, “(2E)-4-[(4-chlorophenyl)amino]-N-phenyl-2-(phenylimino)-1,3,5-dioxazepine-7-carboxamide as an eco-friendly insecticidal agent against Spodoptera littoralis (boisd.)” (King Faisal University, priority 2023, dated 2024):
In brackets after ≈: the same amount, converted by molar mass. Read-outs that look alike come from different tables or passages of the source.

Assays:
[1] = tested on: Spodoptera littoralis larvae; test: Insecticidal leaf dip bioassay screening; details: for Toxicity index %: 72 hours, fenoxycarb's LC50/compound's LC50 * 100; for LC50: Spodoptera littoralis, foliar, 72 h
Experimental: Five concentrations (200, 100, 50, 25, 12.5 ppm) were designed for this synthetic compound and the reference fenoxycarb's compound as the dynamic ingredients based on ppm via diluting the commercial formulation.
In this experiment, the synthetic compound was tested for its insecticidal bioactivity using the industry-standard leaf dip bioassay techniques. Preparation of the compound stocks to create 1000 ppm, 0.1 g of compounds 2 were dissolved in five mL of Dimethyl formamide & combined with 5 mL of distilled water. Until usage, the stocks were kept in a refrigerator. The target substance test results were noted & the concentrations needed to destroy 50% (LC50) of S. littoralis larvae were calculated. The target compound was employed in five different concentrations, & 0.1% Tween 80 was employed as a surfactant. Castor bean leaf discs (nine centimeters in diameter) were dipped in the concentration under test for ten seconds, then fed to 2th & 4th larvae, which were roughly the same size and housed in glass jars (five pound). Each action carried out 3 times with ten larvae each. The mortality equalized via Abbott's formula. Calculations of mortality setback line were measurably rummage via probity analysis. Harmfulness index was strongminded via sun equations. The mortality results of larval insect were estimated through employing probit analysis through a statistics (LDP-line) equation which estimate the LC50 values with 95% fiducially limits of lower, upper confidence limit and slope.

aquatic insects = details: cited from earlier work
[2] = read-out: LC50 (mg/L) at 95%, 2nd instar larvae, laboratory strain S. littoralis, after 72 hours of treatment
[3] = read-out: LC50 (mg/L) at 95%, 4th instar larvae, laboratory strain S. littoralis, after 72 hours of treatment

Structure (SMILES)	activity against Spodoptera littoralis ([1]; 2nd and 4th instar larvae, FIGS. 1A-1B, compared with Fenoxycarb)	Toxicity index % ([1]; 2nd instar larvae)	Toxicity index % ([1]; 4th instar larvae)	LC50 [1, 2]	LC50 [1, 3]	LC50 (aquatic insects)
O=C(Nc1ccccc1)C1=CN=C(Nc2ccc(Cl)cc2)O/C(=N/c2ccccc2)O1 [Compound 2, (2E)-4-[(4-chlorophenyl)amino]-N-phenyl-2-(phenylimino)-1,3,5-dioxazepine-7-carboxamide]	active against Spodoptera littoralis	10.31%	23.54%	57.6 mg/L (≈ 133 µM)	~254 mg/L (≈ 588 µM)	–
CCOC(=O)NCCOc1ccc(Oc2ccccc2)cc1 [fenoxycarb, reference compound]	–	100%	100%	5.94 mg/L (≈ 19.7 µM)	59.9 mg/L (≈ 199 µM)	–
CCc1ccc(C(=O)NN(C(=O)c2cc(C)cc(C)c2)C(C)(C)C)cc1 [tebufenozide]	–	–	–	–	–	100 to 1000 µg/mL
